SMILES strings stand for the structures. Counter-ions that a name gives are not always drawn.

The target of the test is T1, human C1s protein (Homo sapiens, UniProt P09871).
T1 construct: A104
T1 sequence (P09871 16-688): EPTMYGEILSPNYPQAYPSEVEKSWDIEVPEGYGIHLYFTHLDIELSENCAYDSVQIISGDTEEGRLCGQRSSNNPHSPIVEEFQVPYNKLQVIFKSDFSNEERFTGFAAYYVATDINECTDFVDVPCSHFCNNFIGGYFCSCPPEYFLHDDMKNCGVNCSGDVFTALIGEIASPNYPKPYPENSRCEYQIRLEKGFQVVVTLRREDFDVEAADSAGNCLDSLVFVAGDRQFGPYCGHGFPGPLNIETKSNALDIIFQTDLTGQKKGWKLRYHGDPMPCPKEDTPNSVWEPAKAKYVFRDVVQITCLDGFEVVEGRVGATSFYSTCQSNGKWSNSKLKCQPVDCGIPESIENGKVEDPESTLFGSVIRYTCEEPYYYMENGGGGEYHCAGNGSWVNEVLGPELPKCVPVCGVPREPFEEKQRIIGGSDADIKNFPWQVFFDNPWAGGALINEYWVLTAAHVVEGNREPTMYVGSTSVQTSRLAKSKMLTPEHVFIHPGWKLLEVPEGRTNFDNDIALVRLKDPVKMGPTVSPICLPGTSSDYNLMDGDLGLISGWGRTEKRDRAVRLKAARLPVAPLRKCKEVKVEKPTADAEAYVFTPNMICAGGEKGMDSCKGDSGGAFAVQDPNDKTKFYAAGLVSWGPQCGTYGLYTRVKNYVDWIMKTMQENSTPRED
Briefly: C1s enzymatic assay (hydrolysis of YLGR-Rh110-dPro). It counts as biochemical. The following applies: substrate YLGR-Rh110-dPro 20 μM, 15 min pre-incubation, 60 min RT, fluorescence, read-out: hC1s pIC50 (converted). The method, then: Compound Testing in the C1s Enzymatic Assay
The enzyme cleaves the substrate with the release of Rh110 which is highly fluorescent. C1s inhibitors prevent the hydrolysis of the substrate thus resulting in a decrease of the signal.
On the day of the experiment 0.1 mg/mL BSA (Sigma, B4287) is added fresh to the buffer. The test item stock solutions are serially diluted 1:3 or 1:4 or 1:5 with DMSO, 11-point curves, in a 384-well compound plate. Nafamostat concentration curve is always included in the assay plate as a reference control.
The high controls are prepared dispensing in 0.25 μL DMSO in column 23, rows AH or AP and low controls with 0.25 μL of 0.1 M Nafamostat. […] The YLGR-Rh110-dPro substrate is prepared as 2× of the final assay concentration of 20 μM. 1/well of 2× enzyme solution is dispensed and pre-incubated for 15 min with the compounds. The enzymatic reaction is then started with 5 μL/well of the 2× substrate solution.
For `COc1c(-c2ccc3c(N)nnc(C)c3c2)cc(B(O)O)cc1C(F)(F)F` [Example 49, [3-(1-amino-4-methylphthalazin-6-yl)-4-methoxy-5-(trifluoromethyl)phenyl]boronic Acid], the IC50 was 1.91 nM.

Regarding `COc1cc(Cl)c(B(O)O)cc1-c1ccc2c(N)nnc(C)c2c1` [Example 50, [5-(1-amino-4-methylphthalazin-6-yl)-2-chloro-4-methoxyphenyl]boronic Acid], the IC50 was 0.891 nM.

For the compound `Nc1cnnc2cc(-c3cc(B(O)O)ccc3OC3CCOCC3)ccc12` [Example 51, [3-(4-aminocinnolin-7-yl)-4-(oxan-4-yloxy)phenyl]boronic Acid Formic Acid Salt], the IC50 was 0.724 nM.

With `COc1ccc(B(O)O)cc1-c1cc(F)c2c(N)nnc(C)c2c1` [Example 55], the IC50 was 6.61 nM.

As to `Cc1nnc(N)c2ccc(-c3ccc4c(c3)B(O)OC(=O)C4)cc12` [Example 56, Trifluoroacetic Acid Salt], the IC50 is 5.89 nM.

For the compound `COc1c(F)cc(B(O)O)cc1-c1ccc2c(N)nnc(C)c2c1` [Example 57, [3-(1-amino-4-methylphthalazin-6-yl)-5-fluoro-4-methoxyphenyl]boronic Acid Trifluoroacetic Acid Salt], the IC50 was 1.48 nM.

In the case of `COc1c(-c2ccc3c(N)cnnc3c2)cc(B(O)O)cc1C1CCOCC1` [Example 58, [3-(4-aminocinnolin-7-yl)-4-methoxy-5-(oxan-4-yl)phenyl]boronic Acid], the IC50 was 3.39 nM.

Consider `Cc1nnc(N)c2ccc(-c3cc(B(O)O)ccc3NC(=O)CC(C)C)cc12` [Example 59, [3-(1-amino-4-methylphthalazin-6-yl)-4-(3-methylbutanoylamino)phenyl]boronic Acid Formic Acid Salt], for which the IC50 is 3.24 nM.

Take `Cc1nnc(N)c2ccc(-c3cc(B(O)O)ccc3NC(=O)CCC(C)C)cc12` [Example 61, [3-(1-amino-4-methylphthalazin-6-yl)-4-(4-methylpentanoylamino)phenyl]boronic Acid Formic Acid Salt]: the IC50 is 6.76 nM.

In the case of `Cc1nnc(N)c2ccc(-c3cc(B(O)O)ccc3P(C)(C)=O)cc12` [Example 62, [3-(1-amino-4-methylphthalazin-6-yl)-4-dimethylphosphorylphenyl]boronic Acid Formic Acid Salt], the IC50 was 28.8 nM.

Take `COc1cc(C(F)(F)F)c(-c2ccc3c(N)nnc(C)c3c2)cc1B(O)O` [Example 63, [5-(1-amino-4-methylphthalazin-6-yl)-2-methoxy-4-(trifluoromethyl)phenyl]boronic Acid]: the IC50 was 2.14 nM.

Turning to `CC(C)CC(=O)Nc1ccc(B(O)O)cc1-c1ccc2c(N)cnnc2c1` [Example 64, [3-(4-aminocinnolin-7-yl)-4-(3-methylbutanamido)phenyl]boronic Acid Formic Acid Salt], the IC50 was 15.1 nM.

With `CC(C)CCC(=O)Nc1ccc(B(O)O)cc1-c1ccc2c(N)cnnc2c1` [Example 65, [3-(4-aminocinnolin-7-yl)-4-(4-methylpentanamido)phenyl]boronic Acid Formic Acid Salt], the IC50 was 57.5 nM.

Consider `Cc1nnc(N)c2ccc(-c3ccc4c(c3)B(O)OCC4(F)F)cc12` [Example 66, 6-(4,4-difluoro-1-hydroxy-3H-2,1-benzoxazonin-7-yl)-4-methylphthalazin-1-amine], for which the IC50 is 17.4 nM.

Regarding `COc1ccc(B(O)O)cc1-c1cc(C)c2c(N)cnnc2c1` [Example 67, [3-(4-amino-5-methylcinnolin-7-yl)-4-methoxyphenyl]boronic Acid], the IC50 is 17 nM.

On to `Cc1nnc(N)c2ccc(-c3c(C(F)(F)F)ccc(B(O)O)c3F)cc12` [Example 68, [3-(1-amino-4-methylphthalazin-6-yl)-2-fluoro-4-(trifluoromethyl)phenyl]boronic Acid], for which the IC50 was 129 nM.

On to `Cc1nnc(N)c2ccc(-c3ccc(NC(=O)c4ccccc4)c(B(O)O)c3)cc12` [Example 70, [5-(1-amino-4-methylphthalazin-6-yl)-2-benzamidophenyl]boronic Acid], for which the IC50 is 3.8 nM.

The record behind these values is patent US12509474B2, “Inhibitors of complement factors and uses thereof” (Annexon, Inc., priority 2020, dated 2025).
